Data on 1 molecule can be found in patent US9221781B2, “Synthesis of polyhydroxy chromenone compounds and their anti-tumor effects” (BEIJING SHENOGEN PHARMA GROUP LTD., priority 2012, dated 2015).

A word on the IC50: it is the concentration needed to halve the response being measured.

The subject of one experiment is MDA-MB-231 cells. Put plainly: CellTiter-Glo Luminescent Cell Viability Assay on ER-negative breast cancer MDA-MB-231 cells in vitro. The conditions noted are these: Homo sapiens, 72 hours, read-out: Inhibition of viability of breast cancer cells IC50, MDA-MB-231 cells. Type of experiment: cell-based. The method, then: A: CellTiter-Glo® Luminescent Cell Viability Assay on ER-Negative Breast Cancer MDA-MB-231 In Vitro:
MDA-MB-231 cells were maintained at 37° C., in a 5% CO2 atmosphere in DMEM and 10% fetal calf serum. The cells were placed at a density of 6×10^3 cells per well in a 96-well plate. MDA-MB-231 cells were treated with a test compound dissolved in DMSO at the concentration of 0, 0.3 μM, 0.5 μM, 1 μM, 2 μM, 3 μM, 5 μM, 10 μM, 20 μM, 30 μM, 50 μM and 100 μM for 72 hours. Treated cells were examined under CellTiter-Glo® Luminescent Cell Viability Assay Kit (Promega), and luminescence were recorded with Envision.

In a further experiment the test system is K562 cells. Nature of the experiment: Viability of chronic leukemia cells K562 by CellTiter-Glo Luminescent Assay in vitro. Type of experiment: cell-based, human. The note with it: Homo sapiens, 72 hours, read-out: Inhibition of viability of cells in vitro IC50, K562 cells. The method, then: A: Detection of Viability of Chronic Leukemia Cells K562 by CellTiter-Glo® Luminescent Assay In Vitro
The chronic leukemia cells K562 from ATCC were maintained in IMDM and 10% fetal calf serum at 37° C. in a 5% CO2 atmosphere. The cells were subseeded in a 96-well culture plate at a cencentration of 6×10^3 cells/well.K562 cells were treated with a test compound dissolved in DMSO at the concentration of 0, 0.3 μM, 0.5 μM, 1 μM, 2 μM, 3 μM, 5 μM, 10 μM, 20 μM, 30 μM, 50 μM and 100 μM for 72 hours. Treated cells were examined by CellTiter-Glo® Luminescent Cell Viability Assay Kit (Promega), and luminescence were recorded with Envision.
(ATP-based viability assays read luminescence as a measure of living cells.)

The next experiment has as its system Molt-4 cells. Put plainly: Inhibition of growth of acute lymphoblastic leukemia Molt-4 cells by MTT method. Type of experiment: cell-based. The note with it: Homo sapiens, 10^−6M, 72 hours, read-out: The inhibition percentage of cell proliferation by the compounds with a concentration of 10^−6M, Molt-4 cells. The method, then:
B: Inhibition of Growth of Acute Lymphoblastic Leukemia Molt-4 Cells by the Compounds Detected by MTT Method
The acute lymphoblastic leukemia Molt-4 cells from ATCC were maintained in RPMI-1640 and 10% fetal calf serum at 37° C. in a 5% CO2 atmosphere. The cells were subseeded in a 96-well culture plate at a concentration of 6×10^3 cells/well and maintained RPMI-1640 and 10% fetal calf serum at 37° C. 5%CO2 atmosphere. Molt-4 cells were treated with a test compound dissolved in DMSO at the concentration of 0, 10^−4M, 10^−5M, 10^−6M, 10^−7M, 10^−8M for 72 hours. OD value was tested by MTT method, and the inhibition ratio was calculated.
(In general: Tetrazolium dyes change colour on reduction, which living cells bring about.)

A further experiment concerns BEL-7402 cells. Put plainly: Inhibition of liver cancer cell BEL-7402 in vitro by SRB. The conditions noted are these: Homo sapiens, 10^−6M, 72 hours, read-out: The inhibition percentage of cell proliferation by the compounds with a concentration of 10^−6M, BEL-7402 cells. Type of experiment: cell-based. The method, then: A: Inhibition of Liver Cancer Cell BEL-7402 In Vitro by the Compounds Detected by SRB
The liver cancer BEL-7402 cells from ATCC were maintained in DMDM, 10% NCS and 50 μg/ml KANA at 37° C. in a 5% CO2 atmosphere, and were subseeded in a 96-well culture plate at a concentration of 6×10^3 cells/well. BEL-7402 cells were treated with a test compound dissolved in DMSO at the concentration of 0, 10^−4M, 10^−5M, 10^−6M, 10^−7M, 10^−8M for 72 hours. OD value was tested by SRB method, and the inhibition percentage was calculated.

Experiment [1] has as its system colon cancer LS174T cells. Put plainly: Inhibition of colon cancer cells LS174T in vitro by MTT method. Type of experiment: cell-based. The note with it: Homo sapiens, 72 hours, FIG. 6, read-out: IC50, in vitro inhibition on cell line LS174T of colon carcinoma. The method, then:
A: Inhibition of Colon Cancer Cells LS174T In Vitro by the Compounds by MTT Method
The colon cancer LS174T cells were subseeded in a 96-well culture plate at a concentration of 4.5×10^3 cells/well and maintained in phenol red free 1640 medium containing 2.5% CS-FBS at 37° C. in a 5% CO2 atmosphere. LS174T cells were treated with a test compound dissolved in DMSO at the concentration of 0, 1, 2, 4, 8, 10 and 20 μM for 72 hours. OD value was tested by MTT method, and the inhibition percentage was calculated.

In experiment [2] the test system is human endometrial cancer Ishikawa cells xenograft tumor. Put plainly: Inhibition of growth of human endometrial cancer Ishikawa cells xenografts in nude mice. Type of experiment: in vivo. The conditions noted are these: FIG. 11. The method, then:
Nude mice with Human endometrial cancer Ishikawa cells Xenograft Tumor were treated with the test compounds to test their effect on inhibiting tumor growth. Tumor was taken from nude mice with Ishikawa cells and cut into small pieces. Small pieces of tumor were implanted into the armpit under the right front limb of female nude mice. After the implantation, the mice were injected with E2β solution once a day at the dosage of 7 μg per mouse for 6 days to stimulate growth in the expriment mice. […] Medroxyprogesterone acetate was used as a positive control. Mixed oil was used as a negative control. The test compound was dispersed in mixed oil (20 mg/mL). […] Then the mice were sacrificed and the tumor tissues were dissected and weighed. The tumor growth inhibition rate was a percentage calculated using the formula: tumor growth inhibition rate=(average weight of the tumor in the negative control—average weight of the tumor treated with test compound) / average weight of the tumor in the negative control. The result is drawn as bar graph, referring to FIG. 11.
For orientation: In xenograft studies the graft and the host belong to different species.

For the molecule `CC(C)=CCc1c(O)cc(O)c2c(=O)c(O)c(-c3ccc(C(F)(F)F)cc3)oc12` [Compound 1, 2-(4-trifluoromethylphenyl)-3,5,7-trihydroxy-8-(3-methyl-2-buten-1-yl)-4H-chromen-4-one], the IC50 with MDA-MB-231 cells was 1070 nM; with K562 cells, 1040 nM; in experiment [1] it was 1000 to 4000 nM. Moreover, the inhibition at 1 µM worked out at 43.7% in the experiment on Molt-4 cells and 23.7% in the experiment with BEL-7402 cells. The “average tumor weight, inhibition on tumor growth” value in experiment [2] (Ishikawa bearing nude mice, 17.5, 35 and 70 mg/kg, 20 days of continuous administration) is “dominant inhibition on tumor growth”. Also, in experiment [2] (Ishikawa bearing nude mice, versus DMPA 120 mg/kg, 20 days), the “inhibition effect compared with control drug DMPA” value is “higher than control drug”.
